Experimental data from patent publication US9113629B2, “4-amino-6-(4-substituted-phenyl)-picolinates and 6-amino-2-(4-substituted-phenyl)-pyrimidine-4-carboxylates and their use as herbicides” (DOW AGROSCIENCES LLC, priority 2013, dated 2015).

Key:
[1] = Post-emergent Test III, herbicidal activity in wheat and barley; format: in vivo, Lolium multiflorum, Lolium rigidum; conditions: Lolium multiflorum, post-emergence, 504 h, Table 9, post-emergent, 21 d, read-out: Visual Growth Reduction (%) 21 Days After Application LOLSS; for pest or weed control at 35 g/ha: 35 g ai/ha; for pest or weed control at 70 g/ha: 70 g ai/ha
Method in brief: (§1)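 GR20, GR50, GR80 and GR90 come from probit analysis of visual injury scores (0 = none, 100 = complete kill) taken 21 d after treatment. Foliar application was by track sprayer delivering 187 L/ha at five rates, from high down to 1/16×, onto greenhouse plants at the 2–3 leaf stage, with solvent-blank controls.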

[2] = tested on: SETVI: green foxtail (Setaria viridis); experiment: as above; format: in vivo; conditions: Table 9, 21 d; for pest or weed control at 35 g/ha: 35 g ai/ha; for pest or weed control at 70 g/ha: 70 g ai/ha; for GR50 SETVI: dose for 50 percent growth reduction; for GR50 SETVI / GR80 SETVI: probit analysis; for GR80 SETVI: dose for 80 percent growth reduction
Method in brief: as §1

[3] = tested on: KCHSC: kochia (Kochia scoparia); experiment: as above; format: in vivo; conditions: Table 9, 21 d; for pest or weed control at 35 g/ha: 35 g ai/ha; for pest or weed control at 70 g/ha: 70 g ai/ha; for GR50 KCHSC: dose for 50 percent growth reduction; for GR50 KCHSC / GR80 KCHSC: probit analysis; for GR80 KCHSC: dose for 80 percent growth reduction
Method in brief: as §1

[4] = tested on: HORSS: barley, including spring and winter (Hordeum vulgare); experiment: as above; format: in vivo; conditions: Table 9, 21 d; for pest or weed control at 35 g/ha: 35 g ai/ha; for pest or weed control at 70 g/ha: 70 g ai/ha; for GR20 HORSS: dose for 20 percent growth reduction, probit analysis
Method in brief: as §1

[5] = tested on: TRZSS: wheat, including spring and winter (Triticum aestivum); experiment: as above; format: in vivo; conditions: Table 9, 21 d; for GR20 TRZSS: dose for 20 percent growth reduction, probit analysis; for pest or weed control at 35 g/ha: 35 g ai/ha; for pest or weed control at 70 g/ha: 70 g ai/ha
Method in brief: as §1

[6] = tested on: LOLSS: ryegrass including, Italian ryegrass (Lolium multiflorum), rigid ryegrass (Lolium rigidum), annual ryegrass (Lolium multiflorum subsp. Gaudini); experiment: as above; format: in vivo; conditions: Table 9, probit analysis, 21 d; for GR50 LOLSS: dose for 50 percent growth reduction; for GR80 LOLSS: dose for 80 percent growth reduction
Method in brief: as §1

[7] = tested on: APESV: bentgrass (Apera spica-venti); experiment: as above; format: in vivo; conditions: Table 9, 21 d; for pest or weed control at 35 g/ha: 35 g ai/ha; for pest or weed control at 70 g/ha: 70 g ai/ha; for GR50 APESV: dose for 50 percent growth reduction; for GR50 APESV / GR80 APESV: probit analysis; for GR80 APESV: dose for 80 percent growth reduction
Method in brief: as §1

[8] = Setaria viridis, post-emergence, 504 h, post-emergent, read-out: Visual Growth Reduction (%) 21 Days After Application SETVI
[9] = Bassia scoparia, post-emergence, 504 h, post-emergent, read-out: Visual Growth Reduction (%) 21 Days After Application KCHSC
[10] = Hordeum vulgare, post-emergence, 504 h, post-emergent, read-out: Visual Growth Reduction (%) 21 Days After Application HORSS
[11] = Triticum aestivum, post-emergence, 504 h, post-emergent, read-out: Visual Growth Reduction (%) 21 Days After Application TRZSS
[12] = Apera spica-venti, post-emergence, 504 h, post-emergent, read-out: Visual Growth Reduction (%) 21 Days After Application APESV

Q: What does the source list for `Nc1c(Cl)c(C(=O)O)nc(-c2ccc(Br)cc2)c1Cl` [Compound 125]?
A: melting point: 164.9 to 166.1 °C; pest or weed control at 35 g/ha [1]: 0 to 29%; pest or weed control at 70 g/ha [1]: 0 to 29%; pest or weed control at 140 g/ha ([1]; 140 g ai/ha): 45 to 59%; pest or weed control at 35 g/ha [2, 8]: 85 to 94%; pest or weed control at 70 g/ha [2, 8]: 85 to 94%; pest or weed control at 140 g/ha ([2]; Setaria viridis, post-emergence, 504 h, 140 g ai/ha, post-emergent, read-out: Visual Growth Reduction (%) 21 Days After Application SETVI): 85 to 94%; GR50 SETVI [2]: 2 g ai/ha; GR80 SETVI [2]: 16 g ai/ha; pest or weed control at 35 g/ha [3, 9]: 60 to 74%; pest or weed control at 70 g/ha [3, 9]: 85 to 94%; pest or weed control at 140 g/ha ([3]; Bassia scoparia, post-emergence, 504 h, 140 g ai/ha, post-emergent, read-out: Visual Growth Reduction (%) 21 Days After Application KCHSC): 95 to 100%; GR50 KCHSC [3]: 8 g ai/ha; GR80 KCHSC [3]: 34 g ai/ha; pest or weed control at 35 g/ha [4, 10]: 85 to 94%; pest or weed control at 70 g/ha [4, 10]: 95 to 100%; pest or weed control at 140 g/ha ([4]; Hordeum vulgare, post-emergence, 504 h, 140 g ai/ha, post-emergent, read-out: Visual Growth Reduction (%) 21 Days After Application HORSS): 95 to 100%; GR20 HORSS [4]: 1 g ai/ha; GR20 TRZSS [5]: 1 g ai/ha; pest or weed control at 35 g/ha [5, 11]: 75 to 84%; pest or weed control at 70 g/ha [5, 11]: 75 to 84%; pest or weed control at 140 g/ha ([5]; Triticum aestivum, post-emergence, 504 h, 140 g ai/ha, post-emergent, read-out: Visual Growth Reduction (%) 21 Days After Application TRZSS): 85 to 94%; GR50 LOLSS [6]: >140 g ai/ha; GR80 LOLSS [6]: >140 g ai/ha; pest or weed control at 35 g/ha [7, 12]: 75 to 84%; pest or weed control at 70 g/ha [7, 12]: 85 to 94%; pest or weed control at 140 g/ha ([7]; Apera spica-venti, post-emergence, 504 h, 140 g ai/ha, post-emergent, read-out: Visual Growth Reduction (%) 21 Days After Application APESV): 95 to 100%; GR50 APESV [7]: 10 g ai/ha; GR80 APESV [7]: 41 g ai/ha

Q: What does the source list for `COC(=O)c1nc(-c2ccc(I)cc2F)cc(N)c1Cl` [Compound 159]?
A: melting point: 139.8 to 141.2 °C; pest or weed control at 35 g/ha [1]: 45 to 59%; pest or weed control at 70 g/ha [1]: 60 to 74%; pest or weed control at 35 g/ha [2, 8]: 45 to 59%; pest or weed control at 70 g/ha [2, 8]: 60 to 74%; GR50 SETVI [2]: 43 g ai/ha; GR80 SETVI [2]: 113 g ai/ha; pest or weed control at 35 g/ha [3, 9]: 85 to 94%; pest or weed control at 70 g/ha [3, 9]: 95 to 100%; GR50 KCHSC [3]: 4 g ai/ha; GR80 KCHSC [3]: 19 g ai/ha; pest or weed control at 35 g/ha [4, 10]: 85 to 94%; pest or weed control at 70 g/ha [4, 10]: 95 to 100%; GR20 HORSS [4]: 1 g ai/ha; GR20 TRZSS [5]: 1 g ai/ha; pest or weed control at 35 g/ha [5, 11]: 85 to 94%; pest or weed control at 70 g/ha [5, 11]: 95 to 100%; GR50 LOLSS [6]: 36 g ai/ha; GR80 LOLSS [6]: 89 g ai/ha; pest or weed control at 35 g/ha [7, 12]: 85 to 94%; pest or weed control at 70 g/ha [7, 12]: 95 to 100%; GR50 APESV [7]: 11 g ai/ha; GR80 APESV [7]: 25 g ai/ha

Q: Which results are given for `Cc1c(-c2ccc(C(F)(F)F)c(F)c2)nc(C(=O)O)c(Cl)c1N` [Compound 161, 4-amino-3-chloro-6-(3-fluoro-4-(trifluoromethyl)phenyl)-5-methylpicolinic acid]?
A: melting point: 170 to 171.5 °C; pest or weed control at 35 g/ha [1]: 0 to 29%; pest or weed control at 70 g/ha [1]: 0 to 29%; pest or weed control at 35 g/ha [2, 8]: 30 to 44%; pest or weed control at 70 g/ha [2, 8]: 60 to 74%; GR50 SETVI [2]: 53 g ai/ha; GR80 SETVI [2]: 128 g ai/ha; pest or weed control at 35 g/ha [3, 9]: 0 to 29%; pest or weed control at 70 g/ha [3, 9]: 0 to 29%; GR50 KCHSC [3]: >140 g ai/ha; GR80 KCHSC [3]: >140 g ai/ha; pest or weed control at 35 g/ha [4, 10]: 85 to 94%; pest or weed control at 70 g/ha [4, 10]: 85 to 94%; GR20 HORSS [4]: 1 g ai/ha; GR20 TRZSS [5]: 1 g ai/ha; pest or weed control at 35 g/ha [5, 11]: 75 to 84%; pest or weed control at 70 g/ha [5, 11]: 75 to 84%; GR50 LOLSS [6]: 38 g ai/ha; GR80 LOLSS [6]: 82 g ai/ha; pest or weed control at 35 g/ha [7, 12]: 60 to 74%; pest or weed control at 70 g/ha [7, 12]: 75 to 84%; GR50 APESV [7]: 30 g ai/ha; GR80 APESV [7]: 57 g ai/ha

Q: Which melting point does the source give for `Nc1c(Cl)c(C(=O)O)nc(-c2ccc(I)cc2)c1Cl` [Compound 173] here?
A: Its melting point is 188.7 to 190.3 °C.

Q: What about the pest or weed control at 35 g/ha [1] of the same compound?
A: Its pest or weed control at 35 g/ha is 30 to 44%.

Q: And the pest or weed control at 70 g/ha [1]?
A: The pest or weed control at 70 g/ha was 45 to 59%.

Q: What about the pest or weed control at 35 g/ha [2, 8] of the same compound?
A: The pest or weed control at 35 g/ha was 30 to 44%.

Q: What about the pest or weed control at 70 g/ha [2, 8] of the same compound?
A: The pest or weed control at 70 g/ha was 45 to 59%.

Q: And the “GR50 SETVI” value [2]?
A: The value was 54 g ai/ha.

Q: And the “GR80 SETVI” value [2]?
A: The value was 104 g ai/ha.

Q: And the pest or weed control at 35 g/ha [3, 9]?
A: Its pest or weed control at 35 g/ha is 30 to 44%.

Q: What about the pest or weed control at 70 g/ha [3, 9] of the same compound?
A: The pest or weed control at 70 g/ha was 45 to 59%.

Q: And the “GR50 KCHSC” value [3]?
A: The value was 60 g ai/ha.

Q: And the “GR80 KCHSC” value [3]?
A: The value was 131 g ai/ha.

Q: And the pest or weed control at 35 g/ha [4, 10]?
A: The pest or weed control at 35 g/ha was 85 to 94%.

Q: And the pest or weed control at 70 g/ha [4, 10]?
A: The pest or weed control at 70 g/ha was 95 to 100%.

Q: What about the “GR20 HORSS” value [4] of the same compound?
A: The value was 1 g ai/ha.

Q: What about the “GR20 TRZSS” value [5] of the same compound?
A: The value was 1 g ai/ha.

Q: What about the pest or weed control at 35 g/ha [5, 11] of the same compound?
A: The pest or weed control at 35 g/ha was 75 to 84%.

Q: What about the pest or weed control at 70 g/ha [5, 11] of the same compound?
A: The pest or weed control at 70 g/ha was 85 to 94%.

Q: What about the “GR50 LOLSS” value [6] of the same compound?
A: Its value is 119 g ai/ha.

Q: And the “GR80 LOLSS” value [6]?
A: Its value is >140 g ai/ha.

Q: What about the pest or weed control at 35 g/ha [7, 12] of the same compound?
A: The pest or weed control at 35 g/ha was 60 to 74%.

Q: And the pest or weed control at 70 g/ha [7, 12]?
A: Its pest or weed control at 70 g/ha is 75 to 84%.

Q: And the “GR50 APESV” value [7]?
A: The value was 27 g ai/ha.

Q: And the “GR80 APESV” value [7]?
A: The value was 59 g ai/ha.
